Here are results for two compounds from patent US20110124745A1, “Switchable Anionic Surfactants and Methods of Making and Using Same” (priority 2009, published 2011).

Type in all cases: physicochemical
The nature of series [1]: Surface tension studies (tensiometer measurements). The protocol: A stock solution of compound (1A) was prepared by combining 0.460 g (1.559 mmol) of octyl 4-hydroxy-3-nitrobenzoate (1N) and 1.36 g (12.83 mmol) of Na2CO3 in 160 mL of deionized H2O. The resultant solution was homogenized by sonication for 2 min using a sonicating machine (model […], available from Fisher Scientific, Ottawa, Canada). 10 mL of the homogeneous solution was transferred into each of thirteen vials (13×10 mL, vial numbers: 1, 2, 2*, 3, 4, 5, 6, 7, 8, 9, 10, 11 and 12). The levels of solution in all the vials were marked using a marker pen on the outside of the vials. A stir bar was introduced in vials 2* through 12.
The solutions in each vial were turned OFF and back ON according to Table 1. […] In vials 2 and 2*, the surfactant was turned OFF. In vial 2*, following the OFF-turning, the uncapped vial contents were stirred at room temperature for 48 h.
Vials (other than vial 2*) were left at room temperature for 18 h prior to surface tension measurements. Where necessary, water was added to the vials until the total volume matched the original marked levels.
The contents of vials with even numbers (OFF) were filtered by passing them through a Kimwipe™ plug in a pipette to obtain a clear solution.
Surface tension for all solutions was measured in triplicate. The three values of surface tension for each solution remained within ±1 dynes/cm indicating good reproducibility. The tensiometer (Surface Tensiomat 21, Model 14814, available from Fischer Scientific, Ottawa, Canada) was calibrated using deionized water. The initial value of 72 dynes/cm obtained for water was acceptable within experimental error.

Series [2] can be described thus: pKa of the protonated (neutral) form.
The nature of series [3]: Switching from (1N) to (1A) using exposure to air. The settings on record: D2O with Na2CO3, uncapped, stirred at room temperature, 90 min. The protocol:
A solution of anionic surfactant (1A) was prepared by combining octyl 4-hydroxy-3-nitrobenzoate (1N) (0.023 g) and Na2CO3 (0.068 g) in 8.0 mL of D2O. The resultant solution was homogenized by sonication for 2 min. Aliquots (1.00 mL) of this solution were transferred by Hamilton syringe with a least count of 0.005 mL, into three different vials, which were labeled as vials A, B and C. Visual observations were made of vials A, B and C after 0, 30 and 90 min of stirring at room temperature under separate conditions as described below and are presented in FIG. 3A, 3B and 3C, respectively. […] The solution in vial A remained in the ON form (1A) throughout the experiment and it appeared as a yellow homogeneous solution that was free of any solids. A magnetic stir bar was introduced in vials B and C. The surfactant solutions in vials B and C were turned OFF by allowing a stream of CO2 provided by a needle to blow, CO2 at the surface of the solutions (the needle was not allowed to dip or touch the surface of the solution). Vial C was then capped and its cap was supplemented by […]™ to inhibit CO2 leakage. Thus at the beginning of this experiment, which is pictured in FIG. 3A, vial A held a solution in the ON form, and vials B and C held a solution in the OFF form. Vial B was then uncapped and stirred under passive exposure to air. Vial C was stirred under a passive CO2 headgas. […]

With `CCCCCCCCOC(=O)c1ccc(O)c([N+](=O)[O-])c1` [compound (1A), 2-nitro-4-(octyloxycarbonyl)phenolate], the Average surface tension in series [1] (1.559 mmol (1N) + 12.83 mmol Na2CO3 in 160 mL water, vial 1, control, never switched (ON)) came to 35 dynes/cm; in series [1] (vial 2*: turned OFF, then stirred uncapped at room temperature for 48 h) it was 35 dynes/cm. Besides, the “average value of the surface tension over the ON vials” value in series [1] (ON form, vials 1, 3, 5, 7, 9, 11) was 34 dynes/cm.

Broadly, the pKa is the pH at which an ionisable group is half protonated. A high value points to a group that holds its proton tightly. On to `CCCCCCCCOC(=O)c1ccc(O)c([N+](=O)[O-])c1` [compound (1N), octyl 4-hydroxy-3-nitrobenzoate], for which, in series [1] (OFF form, vials 2, 4, 6, 8, 10, 12), the “average value of the surface tension over the OFF vials” value is on record as 61 dynes/cm. This compound yielded a pKa in series [2] of about 5.5. Also, the “conversion of OFF form to ON form by passive exposure to air” value in series [3] is recorded as “passive exposure to air is sufficient”.
